How the values of the data set were obtained: Samples were prepared for injection: 4.54 nmol anti-Ox antibody and 2.27 nmol Ox; 4.54 nmol D1.3 control antibody and 2.27 nmol Ox; or no antibody and 2.27 nmol Ox. Each sample was diluted to 1 ml with sterile PBS. The samples were warmed to 37° C., and then infused over 1 minute through the jugular vein cannula in Sprague-Dawley rats as described above. At various timepoints, 0.45 ml of blood was withdrawn and immediately centrifuged to separate out the plasma. 100 μl of plasma were counted directly by placing the plasma into 5 ml of Scintiverse II and counting in a Beckman LS6500 Scintillation Counter. 100 μl plasma was used in bound vs. free Ox experiments described below. For some rats, 0.1 ml of blood minus plasma was analyzed. These samples were first decolorized by incubating at 40° C. in 0.3 ml of Scintigest (Fisher Scientific):isopropanol (1:2 v/v) for one hour. Then 0.2 ml of 30% H2O2 was added dropwise, and the solution was incubated at room temperature for 15 minutes. Pipetting up and down was needed to break up some clumps. The solution was incubated at 40° C. before placing it into 5 ml of Scintiverse II. The samples were allowed to sit overnight before counting to reduce chemiluminescence. Control samples were prepared using known amounts of Ox to aid in analysis.
The rat anti-mouse kappa antibody 187.1 (see Example 1) was isolated from spent culture medium and purified by passage over a Protein A-Sepharose affinity column. Ten g of CNBr-activated Sepharose 4 Fast Flow (Amersham Biosciences) were washed and coupled with 187.1 according to manufacturer's protocol. Two mg 187.1 per 10 g of swelled resin were used.
During the antibody buffering experiments, 100 μl of plasma was loaded onto the 187.1 column immediately after centrifugation. Three ml of PBS followed by three ml of 0.2 M glycine (pH 2.5) were then applied onto the column as described in Example 1. All PBS fractions and all glycine fractions were collected separately for each timepoint and dried down in the SpeedVac. The residue was resuspended in 150 μl PBS and then transferred to a scintillation vial with 5 ml Scintiverse II for counting.
Samples of NQ11/7.12 and Ox were prepared and infused into Sprague-Dawley rats as described above. Blood samples (0.4 ml) were taken at time 1, 10, 20, 50, 90, and 120 minutes. 100 μl plasma were counted directly and 100 μl were placed on a 187.1 column to separate bound and free Ox. At 24 hours and again at 48 hours following the first administration, 2.27 nmol Ox in 0.5 ml PBS was infused over 1 minute through the jugular cannula. Timepoints were again taken and analyzed as above.
Bound and free forms of Ox in plasma fractions from the animals were separated on an affinity column. […] An immobilized rat anti-mouse kappa antibody was used to trap antibody-Ox complexes while free Ox eluted from the column with a PBS wash (free Ox fraction).

Setting [1] is: Ox administered alone or with D1.3.

The results in this text go back to patent publication US20160082105A1, “Antibody Buffering of a Ligand in Vivo” (ARROWSMITH TECHNOLOGIES CORPORATION, priority 2004, published 2016).

Where two headings read alike, the source gives them in different places.

Regarding `O=C(O)CCCNC=C1N=C(c2ccccc2)OC1=O` [Ox, 2-phenyl-oxazol-5-one-γ-amino butyrate], under setting [1], the “free Ox elimination half-life in plasma” value is 6.0 ± 1 min and the “initial free Ox concentration in plasma” value came to 6.8 nM. Besides, under “Ox administered with NQ11/7.12”, the “free Ox concentration in plasma after an hour” value is 0.8 nM, the “free Ox elimination half-life in plasma” value amounted to 41 ± 6 min and the “initial free Ox concentration in plasma” value is 2.2 nM. For the same compound, under “Ox administered with NQ16/113.8 or NQ22/16.4”, the “decline of free Ox concentration in plasma compared with NQ11/7.12” value was “declined much more rapidly”. Further, the “free Ox concentration in plasma, long term buffering” value (Ox alone re-administered at 24 hours and 48 hours after a single NQ11/7.12 + Ox infusion) is given as “quickly normalized”. Further, the “fraction of unbuffered Ox eliminated from plasma before the first timepoint” value (Ox without anti-Ox antibody) is “more than half”.
